Assay [1] relates to dsDNA. Description: Induction of double stranded DNA break in MGMT-transfected human U373 cells assessed as increase in gamma-H2AX level at 100 uM after 72 hrs by flow cytometry relative to control. The class given is cell-based. (In general: Flow cytometry measures light scatter and fluorescence of single cells or particles in a stream.)
Assay [2] relates to SNB-19. Description: Growth inhibition of empty vector transfected human SNB19 cells after 7 days by MTT assay. The class given is functional. As to conditions: SNB-19, 168 h.
The test system of assay [3] is SNB-19. Description: Growth inhibition of MGMT-transfected human SNB19 cells after 7 days by MTT assay. The class given is functional. As to conditions: SNB-19, 168 h. A general note: Formazan colour is commonly taken as a measure of viable cells.
Assay [4] has as its system U373 MG. Description: Growth inhibition of empty vector transfected human U373 cells after 7 days by MTT assay. The class given is functional, U-373MG ATCC. As to conditions: 168 h.
The test system of assay [5] is U373 MG. The assay is described as follows: Growth inhibition of MGMT-transfected human U373 cells after 7 days by MTT assay. In kind it is functional, U-373MG ATCC. To be noted: 168 h.
Assay [6] can be described thus: Growth inhibition of human SNB19VR cells by MTT assay. In kind it is functional.
Assay [7] in a line: Growth inhibition of human U373VR cells by MTT assay. In kind it is functional.
Assay [8] has as its system HCT-116. Description: Growth inhibition of human HCT116 cells harboring hMLH1 mutation relative to temozolomide. The class given is functional.
Assay [9] deals with DLD-1. The assay is described as follows: Growth inhibition of human DLD1 cells harboring hMSH6 mutation relative to temozolomide. In kind it is functional.
In assay [10] the test system is Escherichia coli. Description: Induction of Escherichia coli linearized pBR322 DNA alkylation at clusters of 3/5 guanines using 5'-end labeled [gamma32P]ATP primer after 2 hrs by PAGE based taq polymerase stop assay.
Assay [11] relates to DNA. Description: Induction of Escherichia coli pBR322 DNA cleavage assessed as covalent modification at N-7 guanine at 10 to 1000 uM after 2 hrs by PAGE based autoradiographic method. The class given is nucleic-acid assay.
For assay [12], the system named is DNA. The assay is described as follows: Induction of Escherichia coli pBR322 DNA interstrand cross linking using 5'-end labeled [gamma32P]ATP primer at <=1000 uM after 2 to 40 hrs by PAGE based autoradiographic method. The class given is nucleic-acid assay.
Assay [13] relates to dsDNA. The assay is described as follows: Induction of double stranded DNA break in MGMT-transfected human U373 cells assessed as increase in gamma-H2AX level at 100 uM after 72 hrs by flow cytometry. The class given is cell-based.

Each structure is given as a SMILES string. Calls of active or inactive are those of the source. No cut-off for these calls is given here.

Turning to `C#CCn1nnc2c(C(N)=O)ncn2c1=O`, the fold change (FC) in [1] is over 2; in assay [8], over 10; in assay [9], over 10. The GI50 in assay [2] was 35.6 µM; in assay [3] it was 37.8 µM; in assay [4], 37.6 µM; in assay [5] it was 36.1 µM; in [6], under 50 µM; in [7], under 50 µM. Further, in [10], the Activity entry is “Dose-dependent effect”. For the same compound, the result in [11] and in assay [13] was Active. For the same compound, the result in [12] was inactive.

In general, GI50 refers to the concentration giving 50% growth inhibition. A higher GI50 goes with less potent growth inhibition.

The record behind these values is ChEMBL document CHEMBL4190174 (2016).
